Earlier results as cited in patent publication US20230218514A1, “FLOATING SUSTAINED RELEASE TABLET FORMULATION OF DROXIDOPA AND METHOD THEREOF” (priority 2022, published 2023).

Key:
[1] = not given; remark: listed apart in the source
[2] = not given; remark: listed apart in the source
[3] = tested on: patients
[4] = tested on: mice; settings: mouse, in vivo
[5] = tested on: rats; settings: rat, in vivo
[6] = tested on: dogs; settings: dog, in vivo
[7] = tested on: monkeys; settings: monkey, in vivo

In the case of N[C@H](C(=O)O)[C@H](O)c1ccc(O)c(O)c1 [Droxidopa, (2S,3R)-2-amino-3-(3,4-dihydroxyphenyl)-3-hydroxypropanoic acid], the Solubility is listed as ≥ 3000 µg/mL, the “Stability in alkaline medium” value (alkaline medium) is listed as “highly unstable” and the “Solubility in dilute HCl” value (dilute HCl) is listed as “Soluble”. The “Solubility in organic solvents” value (methanol, glacial acetic acid, ethanol, acetone, chloroform) was “Practically insoluble”, the Solubility in water (water) was “Slightly soluble” and the Cmax ([1]; in vivo) was 3160 ng/mL. The Elimination half life ([1]; in vivo) was 2.5 h, the Half-life ([1]; in vivo) was 2 to 3 h and the Route of elimination ([1]; in vivo) was “mainly eliminated through urine”. For the same compound, the Tmax ([1]; in vivo) was 1 to 4 h, the Volume of distribution ([1]; in vivo) was 200 L and the Oral bioavailability ([1]; oral) was 90%. For the same compound, the Protein binding [2] was 75%, the Hepatotoxicity ([3]; human, in vivo) was “not found” and the “Side effects, share of patients” value ([3]; nausea, headache, dizziness, increased B.P, hallucination and anorexia) was 0.78%. For the same compound, the “Acute oral LD50” value [4] was “more than 5 g/kg”, the “Acute oral LD50” value [5] was “more than 5 g/kg” and the “Acute oral LD50” value [6] was “more than 5 g/kg”. The “Acute oral LD50” value [7] was “more than 5 g/kg”.
